IC50 and In vivo activity data for one molecule are collected here from US10363257B2 (ZENITH EPIGENETICS LTD., priority 2013, dated 2019).

Assay [1] concerns the target T1, Brd4 bromodomain 1 (BRD4(1)) (Homo sapiens, UniProt O60885).
T1 construct: made in house; host or cells: E. coli BL21(DE3)
The experiment in a line: Inhibition of tetra-acetylated histone H4 binding to Brd4 bromodomain 1 (TR-FRET). The settings on record: tetra-acetylated histone H4 peptide, first bromodomain of Brd4. The method in brief: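 Serially diluted compound (0.2% DMSO) incubated 2 h at room temperature with 200 nM N-His BRD4 bromodomain 1 and 25-50 nM biotinylated tetra-acetyl H4 peptide, detected via Eu-streptavidin/XL665 anti-His. Loss of 665 nm relative to 620 nm signal gave IC50 from dose-response.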

A further assay deals with human AML MV-4-11 cells. The experiment in a line: Inhibition of cell proliferation in MV4-11 cells (CellTiter Aqueous One). Type of assay: cell-based. The settings on record: MV4-11, 72 h. The method, boiled down: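 IC50 values come from blank-corrected proliferation relative to DMSO controls, read as 490 nm absorbance 3–4 h after CellTiter Aqueous One addition. Before that, cells seeded at 5×10^4/well were exposed for 72 h (37° C, 5% CO2) to triplicate two-fold compound dilutions spanning 30–0.2 μM.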

A further assay concerns hIL-17 mRNA. The assay is described as follows: Inhibition of hIL-17 mRNA transcription in OKT3-stimulated peripheral blood mononuclear cells. Type of assay: cell-based. The settings on record: PBMC, human peripheral blood mononuclear cells, OKT3 antibody, 6 h, read-out: IL-17 activity. As to the method: In this example, hIL-17 mRNA in human peripheral blood mononuclear cells was quantitated to measure the transcriptional inhibition of hIL-17 when treated with a compound of the invention.
Human peripheral blood mononuclear cells were plated (2.0×10^5 cells per well) in a 96-well plate in 45 μL OpTimizer T Cell expansion media containing 20 ng/ml IL-2 and penicillin/streptomycin. The cells were treated with the test compound (45 μL at 2× concentration), and then the cells were incubated at 37° C. for 1 h before addition of 10× stock OKT3 antibody at 10 μg/ml in media. Cells were incubated at 37° C. for 6 h before the cells were harvested. At time of harvest, cells were centrifuged (800 rpm, 5 min). Spent media was removed and cell lysis solution (70 μL) was added to the cells in each well and incubated for 5-10 min at room temperature, to allow for complete cell lysis and detachment. mRNA was then prepared using the “mRNA Catcher PLUS plate” (Invitrogen), according to the protocol supplied. After the last wash, as much wash buffer as possible was aspirated without allowing the wells to dry. Elution buffer (E3, 70 μL) was then added to each well. mRNA was then eluted by incubating the mRNA Catcher PLUS plate with Elution Buffer for 5 min at 68° C. and then immediately placing the plate on ice.
The eluted mRNA isolated was then used in a one-step quantitative RT-PCR reaction, using components of the Ultra Sense Kit together with Applied Biosystems primer-probe mixes. Real-time PCR data was analyzed, normalizing the Ct values for hIL-17 to an internal control, prior to determining the fold induction of each unknown sample, relative to the control.

The subject of a further assay is MV4-11 cells. The experiment in a line: In vivo efficacy in athymic nude mouse acute myeloid leukemia xenograft model using MV4-11 cells. The settings on record: MV4-11 AML xenograft, oral, 75 mg/kg b.i.d and 120 mg/kg b.i.d. As to the method: MV4-11 cells (ATCC) are grown under standard cell culture conditions and (NCr) nu/nu fisol strain of female mice age 6-7 weeks are injected with 5×10^6 cells/animal in 100 μL PBS+100 μL Matrigel in the lower left abdominal flank. By approximately day 18 after MV4-11 cells injection, mice are randomized based on tumor volume (L×W×H)/2) of average ˜120 mm^3. Mice are dosed orally with compound at 75 mg/kg b.i.d and 120 mg/kg b.i.d in EA006 formulation at 10 mL/kg body weight dose volume. Tumor measurements are taken with electronic micro calipers and body weights measured on alternate days beginning from dosing period. The average tumor volumes, percent Tumor Growth Inhibition (TGI) and % change in body weights are compared relative to Vehicle control animals. The means, statistical analysis and the comparison between groups are calculated using Student's t-test in Excel.

Assay [2] in a line: In vivo efficacy in experimental autoimmune encephalomyelitis (EAE) model of MS. The settings on record: EAE mice (MOG35-55/CFA, female C57Bl/6), 50 to 125 mg/kg b.i.d. from time of immunization. Details: species or system mouse. The source says:
Experimental autoimmune encephalomyelitis (EAE) is a T-cell-mediated autoimmune disease of the CNS which shares many clinical and histopathological features with human multiple sclerosis (MS). EAE is the most commonly used animal model of MS. […] Cytokines IL-23, IL-6 and IL-17, which are either critical for Th1 and Th17 differentiation or produced by these T cells, play a critical and non-redundant role in EAE development. Therefore, drugs targeting production of these cytokines are likely to have therapeutic potential in treatment of MS.
Compounds of Formula I or la were administered at 50 to 125 mg/kg b.i.d. from time of immunization to EAE mice to assess anti-inflammatory activity. In this model, EAE is induced by MOG35-55/CFA immunization and pertussis toxin injection in female C57BI/6 mice.

The structures appear in SMILES notation. A value given as a limit tells only on which side of the number the result lay.

Regarding `Cc1noc(C)c1-c1cc(N)c2ncn(Cc3ccccc3)c2c1` [Example Compound 7, 1-Benzyl-6-(3,5-dimethylisoxazol-4-yl)-1H-benzo[d]imidazol-4-amine], the IC50 (in assay [1]; in the assay on human AML MV-4-11 cells; in the assay with hIL-17 mRNA) was no more than 300 nM each time. Moreover, the In vivo activity entry (in the assay with MV4-11 cells; in assay [2]) was “Active” in each case.
